Test results: US10160986B2, “Chemoenzymatic synthesis of heparin and heparan sulfate analogs” (The Regents of the University of California, priority 2011, dated 2018)

Assays:
[1] = target: T1, SpGalK (Streptococcus pneumoniae serotype 4, UniProt Q97NZ6); assay: Kinase reaction monitored by CE (ATP to ADP), SpGalK; type: biochemical, Streptococcus pneumoniae TIGR4; conditions: monosaccharide 15 mM, ATP 18 mM, 37° C.
T1 construct: made in house
Procedure: (§1) Capillary electrophoresis (CE) and thin-layer chromatograph (TLC) assays for kinase reactions. […] These conditions were similar to those used for preparative-scale synthesis. After 1 hr, 4 hr, and 24 hr, an aliquot of 8 μL was withdrawn from each reaction mixture, boiled in a water bath for 5 min and stored at −20° C. until being analyzed by capillary electrophoresis (CE) and TLC. For TLC analysis, 0.5 μL of each sample was directly spotted on TLC plates, developed using suitable developing solvents, and stained with anisaldehyde sugar stain. For CE analysis, 1.5 μL of each sample was diluted into 30 μL and subjected to CE analysis as described above for pH profile studies.

[2] = target: NahK_ATCC55813 (Bifidobacterium longum subsp. longum, UniProt E8MF12, D7V/R348H); type: biochemical; set-up: made in house; host or cells: E. coli BL21(DE3); conditions: Glc, Gal, Man, ManNAc and derivatives; enzyme 15, 37° C. for 30 min (Table 3); listed as drawing 47
Procedure: (§2) Substrates specificity assays. GlcNAc, GalNAc, and their derivatives (1 mM) were used as substrates in the presence of ATP (1 mM) and MgCl2 (5 mM) in a Tris-HCl buffer (pH 8.0, 200 mM) to analyze the substrate specificity of NahKs. Two concentrations (0.75 μM or 15 μM) of each NahK were used and the reactions were allowed to proceed for 10 min (for 0.75 μM NahK) or 30 min (for 15 μM NahK) at 37° C. […] All other conditions were the same as for GlcNAc, GalNAc, and their derivatives.
(§3) Capillary electrophoresis (CE) assays. Based on the detection of ADP and ATP in the reaction mixture by a UV detector, a capillary electrophoresis-based method was developed to directly measure the formation of ADP and N-acetylhexosamine-1-phosphate from ATP and N-acetylhexosamine for characterizing the activities of NahKs.

[3] = target: T2, EcGalK (Escherichia coli, UniProt P0A6T3); assay: Kinase reaction monitored by CE (ATP to ADP), EcGalK; type: biochemical; conditions: monosaccharide 15 mM, ATP 18 mM, 37° C.
T2 construct: made in house
Procedure: as §1

[4] = target: NahK_ATCC15697 (Bifidobacterium longum, UniProt B7GN78); assay: Substrate specificity CE assay, NahK_ATCC15697; type: biochemical, Bifidobacterium infantis; conditions: Glc, Gal, Man, ManNAc and derivatives; enzyme 15, 37° C. for 30 min (Table 3); listed as drawing 47
Procedure: as §2, §3

[5] = target: T3, AtGlcAK (Arabidopsis thaliana, UniProt Q93ZC9, I297M); assay: AtGlcAK substrate specificity CE assay; type: biochemical; conditions: High enzyme Conc. (2.1 μg in 20 μL, 60 min, 37° C.)
T3 construct: made in house; host or cells: E. coli BL21 (DE3)
Procedure: Substrate specificity assays. […] The reactions were quenched and assayed with the same method as those for pH profile. All reactions were performed in duplicates.

[6] = system: NahK; assay: Kinase reaction monitored by CE (ATP to ADP), NahK; type: biochemical, Bifidobacterium infantis; conditions: monosaccharide 15 mM, ATP 18 mM, 37° C.
Procedure: Capillary electrophoresis (CE) and thin-layer chromatograph (TLC) assays for kinase reactions. Kinase reactions were carried out at 37° C. in a total volume of 30 μL in Tris-HCl buffer (100 mM, pH 8.0) containing monosaccharide (15 mM), ATP (18 mM, 1.2 eq.), MgCl2 (10 mM), and a kinase (6 μg). These conditions were similar to those used for preparative-scale synthesis. After 1 hr, 4 hr, and 24 hr, an aliquot of 8 μL was withdrawn from each reaction mixture, boiled in a water bath for 5 min and stored at −20° C. until being analyzed by capillary electrophoresis (CE) and TLC. For TLC analysis, 0.5 μL of each sample was directly spotted on TLC plates, developed using suitable developing solvents, and stained with anisaldehyde sugar stain. For CE analysis, 1.5 μL of each sample was diluted into 30 μL and subjected to CE analysis as described above for pH profile studies.
General methods for compound purification and characterization. Chemicals were purchased and used without further purification. ^1H NMR and ^13C NMR spectra were recorded on a Varian Mercury 600 NMR spectrometer. High resolution electrospray ionization (ESI) mass spectra were obtained in negative mode using Thermo Electron LTQ-Orbitrap mass spectrometer. Silica gel 60 Å (Sorbent Technologies) was used for flash column chromatography. Thin-layer chromatography (TLC) was performed on silica gel plates 60 GF254 (Sorbent Technologies) using anisaldehyde sugar stain for detection. Gel filtration chromatography was performed with a column (100 cm×2.5 cm) packed with BioGel P-2 Fine resins (Bio-Rad). GlcN3 (T6-9) (Lau K, Thon, V, Yu H, Ding L, Chen Y, Muthana M M, Wong D, Huang R, and Chen X. Chem. Commun. 2010, 46, 6066-6068), ManF (T6-11) (Burkart M D, Zhang Z, Hung S-C, and Wong C-H. J. Am. Chem. Soc. 1997, 119, 11743-11746; Cao H, Li Y, Lau K, Muthana S, Yu H, Cheng J, Chokhawala H A, Sugiarto G, Zhang L, and Chen X. Org. Biomol. Chem. 2009, 7, 5137-5145), GalN3 (T6-4) and ManN3 (T6-14) (Yu H, Yu H, Karpel R, cand Chen X. Bioorg. Med. Chem. 2004, 12, 6427-6435) were previously synthesized using reported methods. NahK_ATCC15697, EcGalK, SpGalK, and PmPpA were overexpressed as described previously.

[7] = system: PmHS2; assay: Small-scale PmHS2 donor substrate test by TLC; type: biochemical, Pasteurella multocida; conditions: GlcAβ2AAMe 10 mM, donor 15 mM, MgCl2 10 mM, PmHS2 0.5 mg/mL, pH 7.5, 37° C., 12 hr
Procedure: Prior to applying the one-pot three-enzyme system shown in FIG. 16 to the preparative-scale synthesis of the disaccharides, UDP-GlcNAc and derivatives F17-1-F17-12 were tested as donor substrates for PmHS2 in small-scale reaction containing Tris-HCl buffer (100 mM, pH 7.5), GlcAβ2AAMe (10 mM), UDP-GlcNAc or a derivative (15 mM), MgCl2 (10 mM), and PmHS2 (0.5 mg/mL). The reactions were carried out at 37° C. for 12 hr and analyzed by thin layer chromatography (TLC).

[8] = system: PmHS2; assay: Donor substrate specificity of PmHS2 by HPLC (Example 1); type: biochemical, Pasteurella multocida; conditions: acceptor GlcAα2AA 1 mM, UDP-sugar 1 mM, MnCl2 10 mM, pH 6.5, 37° C.
Procedure: (§4) pH profile by HPLC. Typical enzymatic assays were performed in a 10 μl reaction mixture containing a buffer (100 mM) with a pH in the range of 4.0-10.0, UDP-GlcNAc (1 mM), GlcAβ2AA (1 mM), MnCl2 (10 mM) and KfiA (9.0 μg) or PmHS2 (0.25 μg). Buffers used were: Na2HPO4/citric acid, pH 4.0; MES, pH 5.0-6.5; TrisHCl, pH 7.0-9.0; and CAPS, pH 10.0. Reactions were allowed to proceed for 30 min at 37° C. and were quenched by adding ice-cold 10% (v/v) acetonitrile to make 100-fold dilutions. The samples were then kept on ice until an aliquot of 8 μl was injected and analyzed by a Shimadzu LC-2010A system equipped with a membrane on-line degasser, a temperature control unit and a fluorescence detector. A reverse phase Premier C18 column (250 9 4.6 mm I.D., 5 μm particle size, Shimadzu) protected with a C18 guard column cartridge was used. The mobile phase was 25% (v/v) acetonitrile. The fluorescent compounds GlcAβ2AA and GlcNAcα1-4GlcAβ2AA were detected by excitation at 315 nm and emission at 400 nm.
(§5) Substrate specificity of KfiA and PmHS2. All reactions were carried out in duplicate at 37° C. in MES (100 mM, pH 6.5) containing an UDP-GlcNAc or its derivatives (1 mM), […] (1 mM), MnCl2 (10 mM) and KfiA ([…] PmHS2 (2.5×10^−2 μg μl^−1). At 30 min, 4 h or 16 h, aliquots of reaction mixture were withdrawn and were quenched by adding ice-cold 10% (v/v) acetonitrile to make 100-fold dilutions. The assays were analyzed by HPLC.

[9] = system: KfiA; assay: Donor substrate specificity of KfiA by HPLC (Example 1); type: biochemical, E. coli; conditions: acceptor GlcAα2AA 1 mM, UDP-sugar 1 mM, MnCl2 10 mM, pH 6.5, 37° C.
Procedure: as §4, §5

[10] = system: T4, MBP-KfiA-His6 (Escherichia coli); assay: GlcNAcT donor substrate specificity of MBP-KfiA-His6 (Example 12); type: biochemical, E. coli; conditions: acceptor GlcAβ2AA 1 mM, UDP-sugar 1 mM, MnCl2 10 mM, KfiA 2.8 μg μl^−1, 24 h, 37° C.
T4 construct: made in house; host or cells: E. coli BL21(DE3) co-expressing chaperone plasmid pGro7
Procedure: (§6) PmHS2, KfiA, and related fusion proteins were expressed, purified, and characterized as described in Example 1. Reactions with UDP-sugars were carried out in duplicate at 37° C. in MES (100 mM, pH 6.5) containing UDP-GlcNAc or one of its derivatives (1 mM), GlcAβ2AA (1 mM), MnCl2 (10 mM) and KfiA (2.8 μg μl^−1) or PmHS2 (1.1 μg μl^−1) for 24 h. The reaction mixtures were stopped by adding ice-cold 10% (v/v) acetonitrile to make 100-fold dilutions and the mixtures were analyzed by HPLC as described for the pH profile.
(§7) Substrate specificity of the GlcNAcT activities of MBP-KfiA-his6 and his6-PmHS2. […] The reactions were easily analyzed by high performance liquid chromatography (HPLC) equipped with a fluorescence detector using an excitation wavelength of 315 nm and an emission wavelength of 400 nm to determine the ratio of the fluorescent disaccharide product formed and the fluorescent GlcAβ2AA acceptor.

[11] = system: His6-PmHS2; assay: GlcNAcT donor substrate specificity of His6-PmHS2 (Example 12); type: biochemical, Pasteurella multocida; conditions: acceptor GlcAβ2AA 1 mM, UDP-sugar 1 mM, MnCl2 10 mM, PmHS2 1.1 μg μl^−1, 24 h, 37° C.
Procedure: as §6, §7

SMILES: OCC1OC(O)C(O)[C@@H](O)[C@@H]1O (stereo partly shown) [Glc, glucose]
- ATP Conversion ([1]; 1 hr): 6.9%
- ATP Conversion ([1]; 4 hr): 13.8%
- ATP Conversion ([1]; 24 hr): 75.5%
- Percentage Conversion [2]: 4.7 ± 0.1%
- ATP Conversion ([3]; 1 hr): 8.2%
- ATP Conversion ([3]; 4 hr): 13.0%
- ATP Conversion ([3]; 24 hr): 66.4%
- Percentage Conversion [4]: 9.1 ± 0.1%
- Percentage conversion of ATP [5]: <5%
- ATP Conversion ([6]; 4 hr): 18.6%
- ATP Conversion ([6]; 24 hr): 82.2%

SMILES: O=C(NC1C(OP(=O)(O)OP(=O)(O)OCC2OC(n3ccc(=O)[nH]c3=O)C(O)C2O)OC(CO)C(O)C1O)C(F)(F)F [Compound F17-2, Uridine 5′-diphospho-2-deoxy-2-trifluoroacetamido-α-D-glucopyranoside]
- donor substrate for PmHS2 [7]: tolerable donor substrates
- donor substrate for PmHS2 [8]: can use
- donor substrate for KfiA [9]: can use

SMILES: [N-]=[N+]=NCC(=O)N[C@H]1[C@@H](OP(=O)(O)OP(=O)(O)OC[C@H]2O[C@@H](n3ccc(=O)[nH]c3=O)[C@H](O)[C@@H]2O)O[C@H](CO)[C@@H](O)[C@@H]1O [Compound F17-4, Uridine 5′-diphospho-2-azidoxyacetamido-2-deoxy-α-D-glucopyranoside]
- donor substrate for PmHS2 [7]: tolerable donor substrates
- donor substrate for PmHS2 [8]: can use
- donor substrate for KfiA [9]: can use

SMILES: CC(=O)N[C@H]1[C@@H](OP(=O)(O)OP(=O)(O)OC[C@H]2O[C@@H](n3ccc(=O)[nH]c3=O)[C@H](O)[C@@H]2O)O[C@H](CO)[C@@H](O)[C@@H]1O [Compound F17-1, Uridine 5′-diphospho-2-acetamido-2-Deoxy-α-D-glucopyranoside]
- donor substrate for PmHS2 [7]: tolerable donor substrates
- donor substrate for MBP-KfiA-His6 [10]: can be used by MBP-KfiA-His6
- donor substrate for PmHS2 [8]: best substrate
- donor substrate for the α1-4GlcNAcT activity of His6-PmHS2 [11]: suitable donor substrates for His6-PmHS2
- donor substrate for KfiA [9]: best substrate

SMILES: O=C(CO)N[C@H]1[C@@H](OP(=O)(O)OP(=O)(O)OC[C@H]2O[C@@H](n3ccc(=O)[nH]c3=O)[C@H](O)[C@@H]2O)O[C@H](CO)[C@@H](O)[C@@H]1O [Compound F17-3, Uridine 5′-diphospho-2-hydroxyacetamido-2-deoxy-α-D-glucopyranoside]
- donor substrate for PmHS2 [7]: tolerable donor substrates
- donor substrate for PmHS2 [8]: can use
- donor substrate for KfiA [9]: can use
